Like-named read-outs stand apart in the source and are kept apart here.
Experiments:
human ERα [1] = target: T1, human ERα (Homo sapiens, UniProt P03372); test: Creatine kinase expression (ER/CK) in Ad5-wt-hERα infected HAECT-1 cells; conditions: for ER/CK % E2: efficacy relative to the maximal stimulation observed with E2
T1 sequence (P03372 1-595): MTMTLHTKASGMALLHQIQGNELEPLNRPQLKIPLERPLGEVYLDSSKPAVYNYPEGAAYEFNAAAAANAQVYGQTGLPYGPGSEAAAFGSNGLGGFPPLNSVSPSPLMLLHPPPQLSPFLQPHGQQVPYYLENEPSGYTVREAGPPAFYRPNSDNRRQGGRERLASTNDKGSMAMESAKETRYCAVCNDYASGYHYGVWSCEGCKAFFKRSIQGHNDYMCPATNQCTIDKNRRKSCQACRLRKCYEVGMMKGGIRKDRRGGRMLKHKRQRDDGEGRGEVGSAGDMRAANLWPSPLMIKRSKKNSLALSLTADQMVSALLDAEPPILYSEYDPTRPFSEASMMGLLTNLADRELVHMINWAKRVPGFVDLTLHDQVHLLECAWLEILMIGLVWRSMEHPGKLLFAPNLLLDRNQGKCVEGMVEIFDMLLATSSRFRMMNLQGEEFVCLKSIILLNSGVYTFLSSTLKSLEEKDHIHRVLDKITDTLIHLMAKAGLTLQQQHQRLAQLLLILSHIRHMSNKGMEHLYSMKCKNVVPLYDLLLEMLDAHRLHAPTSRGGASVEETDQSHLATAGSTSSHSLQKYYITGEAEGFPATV

human ERα [2] = target: T1, human ERα; test: NF-κB luciferase reporter (ER/NF-KB-luc) in Ad5-wt-hERα infected HAECT-1 cells; conditions: for IC50: ER/NF-KB-luc IC50, Ad5-wt-ER infected HAECT-1 cells, IL-1β
[3] = HAECT1, read-out: ER/NF-KB-luc % E2, efficacy relative to the maximal inhibition observed with E2
[4] = HAECT1, read-out: ER/NF-KB-luc % E2

| Compound | EC50 (human ERα [1]) [nM] | ER/CK % E2 (human ERα [1]) [% E2] | IC50 (human ERα [2]) [nM] | Emax (human ERα [2]; [3]) [%] | Emax (human ERα [2]; [4]) [%] | EC50 (human ERα [1]; read-out: ER/CK EC50, Ad5-wt-ER infected HAECT-1 cells) [nM] |
| --- | --- | --- | --- | --- | --- | --- |
| Oc1ccc(-c2nn(C3CCCC3)c3c(-c4ccc(O)c(O)c4)cccc23)cc1 [Example 240, 4-[1-cyclopentyl-3-(4-hydroxyphenyl)-1H-indazol-7-yl]benzene-1,2-diol] | 974 | 32 | 158 | 54 |  |  |
| Cc1cc(O)ccc1-c1nn(C2CCCC2)c2c(-c3cc4ccccc4s3)cccc12 [Example 266, 4-[7-(1-benzothien-2-yl)-1-cyclopentyl-1H-indazol-3-yl]-3-methylphenol] | 213 | 35 | 68 | 77 |  |  |
| CC(C)n1nc(-c2ccc(O)cc2)c2cccc(-c3ccsc3)c21 [Example 226, 4-(1-isopropyl-7-thien-3-yl-1H-indazol-3-yl)phenol] | 309 | 20 | 32 | 87 |  |  |
| Oc1ccc(-c2c3cccc(Cl)c3nn2C2CCCC2)cc1 [Example 52, 4-(7-chloro-2-cyclopentyl-2H-indazol-3-yl)phenol] | 111 | 27 | 17 | 76 |  |  |
| CC(C)n1nc(-c2ccc(O)cc2)c2cccc(-c3ccco3)c21 [Example 267, 4-[7-(2-furyl)-1-isopropyl-1H-indazol-3-yl]phenol] | 250 | 35 | 53 | 64 |  |  |
| Cc1cc(O)ccc1-c1nn(C(C)C)c2c(F)cccc12 [Example 91, 4-(7-fluoro-1-isopropyl-1H-indazole-3-yl)-3-methylphenol] | 787 | 24 | 80 | 82 |  |  |
| CC(C)n1nc(-c2ccc(O)cc2O)c2cccc(C(F)(F)F)c21 [Example 65, 4-[1-isopropyl-7-(trifluoromethyl)-1H-indazol-3-yl]benzene-1,3-diol] | 218 | 42 | 41 | 86 |  |  |
| C=CCn1nc2c(C(F)(F)F)cccc2c1-c1ccc(O)cc1O [Example 75, 4-[2-allyl-7-(trifluoromethyl)-2H-indazol-3-yl]-1,3-benzenediol] | 982 | 48 | 63 | 83 |  |  |
| Oc1ccc(-c2c3cccc(F)c3nn2C2CCCC2)cc1 [Example 61, 4-(2-cyclopentyl-7-fluoro-2H-indazol-3-yl)phenol] | 76 | 33 | 50 | 62 |  |  |
| Oc1ccc(-c2nn(-c3cccc(C(F)(F)F)c3)c3cc(O)ccc23)c(O)c1 [Example 26, 4-{6-hydroxy-1-[3-(trifluoromethyl)phenyl]-1H-indazol-3-yl}benzene-1,3-diol] |  |  | 356 | 101 |  |  |
| Oc1ccc(-c2nn(C3CCCC3)c3c(-c4cccs4)cccc23)cc1 [Example 238, 4-(1-cyclopentyl-7-thien-2-yl-1H-indazol-3-yl)phenol] |  |  | 11 | 74 |  |  |
| CC(C)n1nc(-c2ccc(O)cc2)c2cccc(-c3ccccc3Cl)c21 [Example 234, 4-[7-(2-chlorophenyl)-1-isopropyl-1H-indazol-3-yl]phenol] |  |  | 34 | 72 |  |  |
| C=CCn1nc(-c2ccc(O)cc2O)c2cccc(Cl)c21 [Example 85, 4-(1-allyl-7-chloro-1H-indazole-3-yl)benzene-1,3-diol] |  |  | 235 | 46 |  |  |
| Cc1cc(O)ccc1-c1nn(C2CCCC2)c2c(-c3ccc(-c4ccccc4)cc3)cccc12 [Example 261, 4-[7-(1,1′-biphenyl-4-yl)-1-cyclopentyl-1H-indazol-3-yl]-3-methyl-phenol] |  |  | 98 | 42 |  |  |
| CS(=O)(=O)c1ccc(-n2nc(-c3ccc(O)cc3O)c3ccc(O)cc32)cc1 [Example 28, 4-{6-hydroxy-1-[4-(methylsulfonyl)phenyl]-1H-indazol-3-yl}benzene-1,3-diol] |  |  | 551 | 86 |  |  |
| CCc1ccc(-c2cccc3c(-c4ccc(O)cc4C)nn(C4CCCC4)c23)cc1 [Example 260, 4-[1-cyclopentyl-7-(4-ethylphenyl)-1H-indazol-3-yl]-3-methyl-phenol] |  |  | 28 | 53 |  |  |
| Cc1cc(O)ccc1-c1nn(C(C)C)c2c(-c3ccccc3Cl)cccc12 [Example 253, 4-[7-(2-chlorophenyl)-1-isopropyl-1H-indazol-3-yl]-3-methyl-phenol] |  |  | 21 | 62 |  |  |
| CCCn1nc(-c2ccc(O)cc2)c2cccc(C)c21 [Example 37, 4-(7-methyl-1-propyl-1H-indazol-3-yl)phenol] |  |  |  |  | 95 |  |
| CCCCC/C=C/c1cccc2c(-c3ccc(O)cc3C)nn(C3CCCC3)c12 [Example 258, 4-{1-cyclopentyl-7-[(E)-hept-1-enyl]-1H-indazol-3-yl}-3-methyl-phenol] |  |  | 644 | 77 |  |  |

| Compound | EC50 (human ERα [1]) [nM] | ER/CK % E2 (human ERα [1]) [% E2] | IC50 (human ERα [2]) [nM] | Emax (human ERα [2]; [3]) [%] | Emax (human ERα [2]; [4]) [%] | EC50 (human ERα [1]; read-out: ER/CK EC50, Ad5-wt-ER infected HAECT-1 cells) [nM] |
| --- | --- | --- | --- | --- | --- | --- |
| CCCn1nc(-c2ccc(OC(=O)CC(C)(C)C)cc2)c2cccc(Cl)c21 [Example 122, 4-(7-chloro-1-propyl-1H-indazol-3-yl)phenyl 3,3-dimethylbutanoate] |  |  | 350 | 78 |  |  |
| Oc1ccc(-c2nn(CC3CCCCC3)c3c(C(F)(F)F)cccc23)c(O)c1 [Example 67, 4-[1-(cyclohexylmethyl)-7-(trifluoromethyl)-1H-indazol-3-yl]benzene-1,3-diol] |  |  | 48 | 65 |  |  |
| Cc1cc(O)ccc1-c1nn(C(C)C)c2c(-c3ccc(CO)cc3)cccc12 [Example 249, 4-{7-[14-(hydroxymethyl)phenyl]-1-isopropyl-1H-indazol-3-yl}-3-methylphenol] |  |  | 59 | 59 |  |  |
| Oc1ccc(-c2nn(Cc3ccccc3)c3c(F)cccc23)c(O)c1 [Example 151, 4-(1-benzyl-7-fluoro-1H-indazol-3-yl)benzene-1,3-diol] |  |  | 1060 | 81 |  |  |
| CCCn1nc(-c2ccc(OC(=O)CC)cc2)c2cccc(Cl)c21 [Example 123, 4-(7-chloro-1-propyl-1H-indazol-3-yl)phenyl propionate] |  |  | 328 | 71 |  |  |
| O=[N+]([O-])c1cccc(-n2nc(-c3ccc(O)cc3O)c3ccc(O)cc32)c1 [Example 25, 4-[6-hydroxy-1-(3-nitrophenyl)-1H-indazol-3-yl]benzene-1,3-diol] |  |  | 274 | 112 |  |  |
| Oc1ccc(-c2nn(-c3ccc(Br)cc3)c3c(C(F)(F)F)cccc23)cc1 [Example 31, 4-[1-(4-bromophenyl)-7-(trifluoromethyl)-1H-indazol-3-yl]phenol] |  |  | 636 | 120 |  |  |
| CC(C)c1ccc(-n2nc(-c3ccc(O)cc3O)c3ccc(O)cc32)cc1 [Example 27, 4-[6-hydroxy-1-(4-isopropylphenyl)-1H-indazol-3-yl]benzene-1,3-diol] |  |  | 1030 | 96 |  |  |
| CCc1ccc(-c2cccc3c(-c4ccc(O)cc4)nn(C4CCCC4)c23)cc1 [Example 241, 4-[1-cyclopentyl-7-(4-ethylphenyl)-1H-indazol-3-yl]phenol] |  |  | 32 | 60 |  |  |
| CCNC(=O)Oc1ccc(-c2nn(C3CCCC3)c3c(F)cccc23)cc1 [Example 118, 4-(1-cyclopentyl-7-fluoro-1H-indazol-3-yl)phenyl ethylcarbamate] |  |  | 418 |  | 66 |  |
| CCCCC/C=C/c1cccc2c(-c3ccc(O)cc3C)nn(C(C)C)c12 [Example 248, 4-{7-[(E)-hept-1-enyl]-1-isopropyl-1H-indazol-3-yl}-3-methyl-phenol] |  |  | 481 | 73 |  |  |
| CCCn1nc(-c2ccc(O)cc2)c2cccc(-c3ccccc3)c21 [Example 111, 4-(7-phenyl-1-propyl-1H-indazol-3-yl)phenol] |  |  | 214 | 78 |  |  |
| Oc1ccc(-c2nn(Cc3ccccc3)c3c(C(F)(F)F)cccc23)cc1 [Example 147, 4-[1-benzyl-7-(trifluoromethyl)-1H-indazol-3-yl]phenol] |  |  |  | 65 |  |  |
| 4-[1-isopropyl-7-(2-methylphenyl)-1H-indazol-3-yl]-3-methyl-phenol [Example 256] |  |  |  |  |  | 292 |
| CC(C)n1nc(-c2ccc(O)cc2)c2cccc(-c3ccc(CO)cc3)c21 [Example 230, 4-{7-[4-(hydroxymethyl)phenyl]-1-isopropyl-1H-indazol-3-yl}-phenol] |  |  | 367 | 82 |  |  |
| Cn1nc(-c2ccc(O)cc2)c2cc(F)c(Cl)cc21 [Example 125, 4-(6-chloro-5-fluoro-1-methyl-1H-indazol-3-yl)phenol] |  |  | 479 | 128 |  |  |
| OCCn1nc(-c2ccc(O)cc2)c2cccc(C(F)(F)F)c21 [Example 162, 4-[1-(2-hydroxyethyl)-7-(trifluoromethyl)-1H-indazol-3-yl]phenol] |  |  |  | 84 |  |  |
| CCCn1nc(-c2ccc(O)cc2C)c2cccc(F)c21 [Example 93, 4-(7-fluoro-1-propyl-1H-indazole-3-yl)-3-methylphenol] |  |  | 128 | 60 |  |  |

Reference: patent US7241791B2, “Substituted 4-(indazol-3-yl)phenols” (Wyeth, priority 2002, dated 2007)
